Patent US10829464B2, “Benzoheterocyclic alkylamine compounds and use thereof” (priority 2016, dated 2020)
In brackets after ≈: the same amount, converted by molar mass. Like-named read-outs stand apart in the source and are kept apart here.

Tests used:
CYP enzyme subtype 3A4M = CYP enzyme subtype 3A4M (Homo sapiens, UniProt P08684); test: Inhibition assay on hepatic CYP450 enzyme; assay type: in vitro ADME; details: CYP 3A4M; read-out: Half inhibitory concentration (IC50)
[1] = test system: Staphylococcus aureus subsp. aureus str. strain Newman; test: Preliminary screening assay of inhibition of staphyloxanthin synthesis; assay type: cell-based
Protocol: Strains used for assay: freshly activated wild-type Staphylococcus aureus subsp. aureus str. strain Newman and its homologous mutant strain having crtN insertion (without staphyloxanthin synthesis).
Medium for assay: Tryptone Soy broth (TSB), a product from Oxid Corporation, the United Kingdom, which was formulated with distilled water, sterilized at 121° C. for 15 min for later use.
Method of Preliminary Screening Assay:
(1) Preparation of compound: the compound of the invention was dissolved in dimethyl sulfoxide (DMSO) to prepare a stock solution having a concentration of 10 mM; 400 μL of DMSO was added to 100 μL of the stock solution to get a dilution with a concentration of 2 mM; 250 μL (2 mM) of the dilution was taken after mixing, and an equal amount of DMSO was added thereto for 2-fold dilution to get a solution with a concentration of […] for later use.
(2) Culture of the strain: single colonies of strain Newman were picked from TSA plates into a test tube containing 4 mL of sterile TSB medium, and cultured at 37° C. and 250 rpm for 12 h for later use.

Trichophyton rubrum = test: In vitro antifungal assay (micro liquid-based dilution); assay type: cell-based; details: read-out: Antifungal Activities, MIC80
CYP enzyme subtype 2C8 = CYP enzyme subtype 2C8 (Homo sapiens, UniProt P10632); test: Inhibition assay on hepatic CYP450 enzyme
CYP enzyme subtype 2C8, sequence (P10632 whole entry): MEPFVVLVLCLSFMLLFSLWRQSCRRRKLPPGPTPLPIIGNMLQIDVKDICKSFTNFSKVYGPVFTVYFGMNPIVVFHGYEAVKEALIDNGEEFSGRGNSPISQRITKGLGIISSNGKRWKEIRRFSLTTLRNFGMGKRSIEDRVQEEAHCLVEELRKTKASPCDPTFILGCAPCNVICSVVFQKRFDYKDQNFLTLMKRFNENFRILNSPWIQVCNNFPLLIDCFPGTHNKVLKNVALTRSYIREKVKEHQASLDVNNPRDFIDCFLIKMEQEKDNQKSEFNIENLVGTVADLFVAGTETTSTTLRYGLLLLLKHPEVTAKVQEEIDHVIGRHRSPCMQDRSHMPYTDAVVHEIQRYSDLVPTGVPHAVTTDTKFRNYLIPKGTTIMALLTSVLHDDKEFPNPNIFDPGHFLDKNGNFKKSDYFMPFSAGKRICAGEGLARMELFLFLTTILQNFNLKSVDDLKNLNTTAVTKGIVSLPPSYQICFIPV

CYP enzyme subtype 1A2 = CYP enzyme subtype 1A2 (Homo sapiens, UniProt P05177); test: Inhibition assay on hepatic CYP450 enzyme; assay type: in vitro ADME; details: CYP 1A2; read-out: Half inhibitory concentration (IC50)
CYP enzyme subtype 1A2, sequence (P05177 whole entry): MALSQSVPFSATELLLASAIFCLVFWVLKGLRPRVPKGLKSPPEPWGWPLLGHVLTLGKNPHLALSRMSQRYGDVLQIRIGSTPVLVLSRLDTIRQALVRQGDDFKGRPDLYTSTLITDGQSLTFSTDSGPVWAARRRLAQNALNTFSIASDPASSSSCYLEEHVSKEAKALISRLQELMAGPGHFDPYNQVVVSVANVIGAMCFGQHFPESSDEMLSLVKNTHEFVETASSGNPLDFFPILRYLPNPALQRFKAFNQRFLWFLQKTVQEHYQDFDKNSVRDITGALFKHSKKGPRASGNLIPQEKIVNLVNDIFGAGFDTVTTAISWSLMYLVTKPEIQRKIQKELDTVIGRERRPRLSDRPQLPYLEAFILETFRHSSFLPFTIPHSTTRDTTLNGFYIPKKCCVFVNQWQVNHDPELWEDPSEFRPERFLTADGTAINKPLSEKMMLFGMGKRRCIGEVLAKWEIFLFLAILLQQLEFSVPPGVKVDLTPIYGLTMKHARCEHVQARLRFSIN

S. aureus strain Newman = test: IC50 determination of inhibition of staphyloxanthin synthesis; assay type: cell-based; details: Staphylococcus aureus
Protocol: (§1) Selection of compound concentrations: based on the preliminary screening results, the ability of each compound to inhibit staphyloxanthin synthesis was determined. […] According to the assay results, 10 different concentration gradients were designed for each compound, such that the ability to inhibit staphyloxanthin synthesis comprised substantially from 0% to 100%.
(§2) Culture of the strains: single colonies of strain Newman and crtN mutant strain were picked from TSA plates, added into test tubes containing 4 mL of sterile TSB medium, and cultured at 37° C. and 250 rpm for 12 h for later use.
(§3) The relative level of staphyloxanthin synthesis at each concentration of the compound of the invention=A450 (sample)/A450 (negative control)*100%. With the molar concentration of the compound as the abscissa and the relative level of staphyloxanthin synthesis as the ordinate, a curve fitting of inhibitor concentration-inhibition rate (log(inhibitor) vs response) was performed in Graphpad prism 5.0 software, and the IC50 of the compound for inhibiting staphyloxanthin synthesis was calculated by software based on the fitting results.
S. aureus was selected for IC50 determination with respect to activity of inhibiting staphyloxanthin synthesis. […]

S. aureus [2] = test: Hydrogen peroxide killing assay; assay type: cell-based, Staphylococcus aureus; details: four strains, 1.5% hydrogen peroxide, 1 h
Text: (§4) Compound IA-25 was used as a representative compound. The main object of the invention was to impair the ability of bacteria to resist immunological killing in vivo by inhibiting staphyloxanthins synthesis.
The calculated survival rate of bacteria after hydrogen peroxide killing=(count of bacteria grown in sample after hydrogen peroxide killing×dilution factor)/(count of bacteria grown in control group×dilution factor)×100%.

S. aureus [3] = test: Human whole blood killing assay; assay type: cell-based, Staphylococcus aureus; details: four strains, fresh human blood, 6 h
Text: as §4
The calculated survival rate of bacteria after blood killing=(count of bacteria grown in sample after blood killing×dilution factor)/(count of bacteria grown in control group×dilution factor)×100%.

[4] = test system: wild-type S. aureus Newman strain; test: Verification assay using CrtN as a target (HPLC of carotenoid extract); assay type: cell-based, Staphylococcus aureus; details: 100 μM added to wild-type strain Newman, 440 nm
CYP enzyme subtype 2C19 = CYP enzyme subtype 2C19 (Homo sapiens, UniProt P33261); test: Inhibition assay on hepatic CYP450 enzyme; assay type: in vitro ADME; details: CYP 2C19; read-out: Half inhibitory concentration (IC50)
CYP enzyme subtype 2C19, sequence (P33261 whole entry): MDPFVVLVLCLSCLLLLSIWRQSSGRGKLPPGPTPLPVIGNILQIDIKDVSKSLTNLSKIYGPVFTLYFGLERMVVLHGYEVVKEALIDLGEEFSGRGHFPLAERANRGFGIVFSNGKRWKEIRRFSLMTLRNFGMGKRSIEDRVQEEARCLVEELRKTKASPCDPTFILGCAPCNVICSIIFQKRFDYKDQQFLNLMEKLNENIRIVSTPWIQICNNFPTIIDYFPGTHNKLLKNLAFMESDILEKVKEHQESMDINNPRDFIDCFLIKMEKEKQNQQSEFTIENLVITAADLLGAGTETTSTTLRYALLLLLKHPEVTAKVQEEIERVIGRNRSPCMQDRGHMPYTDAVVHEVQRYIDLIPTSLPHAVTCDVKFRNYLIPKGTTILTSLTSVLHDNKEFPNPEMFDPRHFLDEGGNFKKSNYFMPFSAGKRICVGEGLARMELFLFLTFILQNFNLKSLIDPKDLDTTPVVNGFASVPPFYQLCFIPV

NRS108 (FRA) = test: IC50 of inhibition of staphyloxanthin synthesis in MRSA strain; assay type: cell-based; details: Staphylococcus aureus, NRS108, read-out: Inhibitory activity on staphyloxanthin IC50
Protocol: as §1, §2, §3
(§5) Compound IA-25 was used as a representative compound. In addition to replacement of S aureus strain Newman with other MRSA strains as described in Table 3, the rest of the method is the same as in Examples 61-62.

LRSA56 (CHN) = test: as above; assay type: cell-based; details: Staphylococcus aureus, read-out: Inhibitory activity on staphyloxanthin IC50
Protocol: as §1, §2, §3, §5

LRSA205 (CHN) = test: as above; assay type: cell-based; details: Staphylococcus aureus, read-out: Inhibitory activity on staphyloxanthin IC50
Protocol: as §1, §2, §3, §5

NF65Y (CHN) = test: as above; assay type: cell-based; details: Staphylococcus aureus, read-out: Inhibitory activity on staphyloxanthin IC50
Protocol: as §1, §2, §3, §5

NRS100 (USA) = test: as above; assay type: cell-based; details: Staphylococcus aureus, NRS100, read-out: Inhibitory activity on staphyloxanthin IC50
Protocol: as §1, §2, §3, §5

USA400 MW2 = test: IC50 of inhibition of staphyloxanthin synthesis in drug-resistant strain; assay type: cell-based; details: Staphylococcus aureus
Protocol: as §1, §2, §3
(§6) In addition to replacement of S. aureus strain Newman with USA 400 MW 2, USA 300 LAC and Mu 50, the rest of the method is the same as in Examples 58-59.
as §5

Mu50 = test: as above; assay type: cell-based; details: Staphylococcus aureus
Protocol: as §1, §2, §3, §6, §5

USA300 LAC = test: as above; assay type: cell-based; details: Staphylococcus aureus
Protocol: as §1, §2, §3, §6, §5

CYP enzyme subtype 3A4T = CYP enzyme subtype 3A4T (Homo sapiens, UniProt P08684); test: Inhibition assay on hepatic CYP450 enzyme; assay type: in vitro ADME; details: CYP 3A4T; read-out: Half inhibitory concentration (IC50)
CYP enzyme subtype 3A4T, sequence (P08684 whole entry): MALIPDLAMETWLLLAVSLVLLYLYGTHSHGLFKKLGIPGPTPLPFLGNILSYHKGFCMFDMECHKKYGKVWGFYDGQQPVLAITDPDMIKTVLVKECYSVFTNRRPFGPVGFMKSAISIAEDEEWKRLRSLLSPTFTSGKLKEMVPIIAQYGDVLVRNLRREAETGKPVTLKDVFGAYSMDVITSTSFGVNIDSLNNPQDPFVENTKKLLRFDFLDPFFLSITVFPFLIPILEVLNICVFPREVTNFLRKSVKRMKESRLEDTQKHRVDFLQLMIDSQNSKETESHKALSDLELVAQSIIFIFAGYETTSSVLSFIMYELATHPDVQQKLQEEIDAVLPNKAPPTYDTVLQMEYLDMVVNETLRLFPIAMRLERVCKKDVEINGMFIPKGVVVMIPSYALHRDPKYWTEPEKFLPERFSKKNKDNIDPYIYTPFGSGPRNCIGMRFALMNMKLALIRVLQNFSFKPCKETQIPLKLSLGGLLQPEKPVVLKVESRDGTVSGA

CYP enzyme subtype 3A4M, sequence (P08684 whole entry): as above

CN(C/C=C/c1ccc(-c2ccccc2)cc1)Cc1coc2ccccc12 [Compound IA-25, (E)-N-methyl-N-[(benzofuran-3-yl)methylene]-3-(4-phenylphenyl)-prop-2-en-1-amine]
IC50 (CYP enzyme subtype 3A4M): > 10000 nM | colors in final photograph of inhibition of staphyloxanthin synthesis ([1]; 50, 10, 5, 2.5, 1.25, 0.625, 0.3125 and 0 μM from left to right): white to yellow from left to right gradually | concentration at which staphyloxanthin synthesis is significantly inhibited ([1]; strain Newman, 24 h culture, lowest concentration tested): ≤ 0.3125 µM | MIC80 (Trichophyton rubrum): 64 µg/mL (≈ 181 µM) | IC50 (CYP enzyme subtype 2C8): > 10000 nM | IC50 (CYP enzyme subtype 1A2): 5690 nM | IC50 (S. aureus strain Newman; Newman, Table 3, read-out: Inhibitory activity on staphyloxanthin IC50): 2 ± 0.1 nM | IC50 (S. aureus strain Newman; S. aureus strain Newman, Table 1, read-out: IC50, inhibitory activity on staphyloxanthin synthesis): 2 ± 0.1 nM | bacterial survival rate after hydrogen peroxide killing (S. aureus [2]): less than 5% | bacterial survival rate after human blood killing (S. aureus [3]): less than 3% | HPLC absorption peaks of carotenoid extract [4]: absorption peaks at the original peak position disappeared again | IC50 (CYP enzyme subtype 2C19): > 10000 nM | IC50 (NRS108 (FRA)): 5.6 ± 0.02 nM | IC50 (LRSA56 (CHN)): 1.8 ± 0.1 nM | IC50 (LRSA205 (CHN)): 10.5 ± 0.4 nM | IC50 (NF65Y (CHN)): 1 ± 0.02 nM | IC50 (NRS100 (USA)): 1.2 ± 0.1 nM | bioavailability (in vivo): 15 to 45% | IC50 (USA400 MW2; USA400, read-out: IC50, staphyloxanthin synthesis in drug-resistant strain): 1.9 ± 0.5 nM | IC50 (USA400 MW2; USA400, read-out: Inhibitory activity on staphyloxanthin IC50): 1.9 ± 1.2 nM | IC50 (Mu50; read-out: IC50, staphyloxanthin synthesis in drug-resistant strain): 0.8 ± 1.4 nM | IC50 (Mu50; read-out: Inhibitory activity on staphyloxanthin IC50): 0.8 ± 0.01 nM | IC50 (USA300 LAC; USA300, read-out: IC50, staphyloxanthin synthesis in drug-resistant strain): 7.9 ± 1.2 nM | IC50 (USA300 LAC; USA300, read-out: Inhibitory activity on staphyloxanthin IC50): 7.9 ± 0.2 nM | IC50 (CYP enzyme subtype 3A4T): > 10000 nM
